Reference: the supplement of paper PMC10307832

Key:
Experiment in all cases: relative viability (nuclei count vs DMSO), 5 days (fraction); higher = more cells survive
AT9283 + Tozasertib = compound: O=C(Nc1c[nH]nc1-c1nc2ccc(CN3CCOCC3)cc2[nH]1)NC1CC1 [AT9283] + Cc1cc(Nc2cc(N3CCN(C)CC3)nc(Sc3ccc(NC(=O)C4CC4)cc3)n2)n[nH]1 [Tozasertib] (partner 0.1 µM)
Summary of the method: (§1)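 Cells from lung cancer lines were seeded into 1536-well plates and, one day later, dosed by pin tool. Treatments were either a single drug or a fixed dose of an anchor drug with five library-drug doses (not always all listed) in √10 steps. After 5 days, nuclei were stained in a one-step fixation (final 0.05% Triton X-100, 1% formaldehyde, 1 ug/ml Hoechst) and counted on 4× images, and relative viability is the treated-to-vehicle nuclei ratio, as the median of duplicate plates.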

Erlotinib + OSI-027 = compound: C#Cc1cccc(Nc2ncnc3cc(OCCOC)c(OCCOC)cc23)c1 [Erlotinib] + COc1cccc2cc(-c3nc([C@H]4CC[C@H](C(=O)O)CC4)n4ncnc(N)c34)[nH]c12 [OSI-027] (partner 0.5 µM)
Summary of the method: as §1

Erlotinib + Luminespib = compound: C#Cc1cccc(Nc2ncnc3cc(OCCOC)c(OCCOC)cc23)c1 [Erlotinib] + CCNC(=O)c1noc(-c2cc(C(C)C)c(O)cc2O)c1-c1ccc(CN2CCOCC2)cc1 [Luminespib] (partner 0.01 µM)
Summary of the method: as §1

Erlotinib + Decitabine = compound: C#Cc1cccc(Nc2ncnc3cc(OCCOC)c(OCCOC)cc23)c1 [Erlotinib] + Nc1ncn([C@H]2C[C@H](O)[C@@H](CO)O2)c(=O)n1 [Decitabine] (partner 2 µM)
Summary of the method: as §1

Erlotinib + Trametinib = compound: C#Cc1cccc(Nc2ncnc3cc(OCCOC)c(OCCOC)cc23)c1 [Erlotinib] + CC(=O)Nc1cccc(-n2c(=O)n(C3CC3)c(=O)c3c(Nc4ccc(I)cc4F)n(C)c(=O)c(C)c32)c1 [Trametinib] (partner 0.02 µM)
Summary of the method: as §1

Cell Line | relative viability (AT9283 + Tozasertib; first compound 0.003 µM) | relative viability (AT9283 + Tozasertib; first compound 0.03 µM) | relative viability (AT9283 + Tozasertib; first compound 0.09487 µM) | relative viability (AT9283 + Tozasertib; first compound 0.3 µM) | relative viability (Erlotinib + OSI-027; first compound 0.2 µM) | relative viability (Erlotinib + OSI-027; first compound 0.6325 µM) | relative viability (Erlotinib + OSI-027; first compound 2 µM) | relative viability (Erlotinib + Luminespib; first compound 0.02 µM) | relative viability (Erlotinib + Luminespib; first compound 0.2 µM) | relative viability (Erlotinib + Luminespib; first compound 0.6325 µM) | relative viability (Erlotinib + Luminespib; first compound 2 µM) | relative viability (Erlotinib + Decitabine; first compound 0.02 µM) | relative viability (Erlotinib + Decitabine; first compound 0.2 µM) | relative viability (Erlotinib + Decitabine; first compound 0.6325 µM) | relative viability (Erlotinib + Decitabine; first compound 2 µM) | relative viability (Erlotinib + Trametinib; first compound 0.02 µM) | relative viability (Erlotinib + Trametinib; first compound 0.2 µM) | relative viability (Erlotinib + Trametinib; first compound 0.6325 µM) | relative viability (Erlotinib + Trametinib; first compound 2 µM) | relative viability (Erlotinib + OSI-027; first compound 0.02 µM)
NCI-H460 | 0.388 | 0.198 | 0.0277 | 0.0528 | 0.547 | 0.469 | 0.217 | 0.03 | 0.0268 | 0.033 | 0.0356 | 0.508 | 0.433 | 0.505 | 0.47 | 0.104 | 0.129 | 0.131 | 0.0721 | 
NCI-H520 | 0.48 | 0.435 | 0.423 | 0.251 | 0.387 | 0.271 | 0.226 | 0.242 | 0.23 | 0.253 | 0.248 | 0.593 | 0.504 | 0.519 | 0.564 | 0.689 | 0.666 | 0.744 | 0.687 | 0.282
NCI-H522 | 0.545 | 0.576 | 0.56 | 0.557 | 0.672 | 0.816 | 0.66 | 1.16 | 0.954 | 1.15 | 0.965 | 0.661 | 0.751 | 0.659 | 0.589 | 0.665 | 0.697 | 0.705 | 0.676 | 0.749
NCI-H596 | 0.943 | 0.839 | 0.933 | 0.553 | 0.528 | 0.537 | 0.408 | 1.07 | 0.848 | 0.893 | 0.878 | 1.21 | 0.926 | 0.999 | 0.985 | 0.745 | 0.75 | 0.886 | 0.751 | 0.675
NCI-H647 | 0.307 | 0.14 | 0.117 | 0.118 | 0.606 |  | 0.449 | 0.218 | 0.119 | 0.142 | 0.0816 | 0.422 | 0.392 | 0.442 | 0.456 | 0.653 | 0.367 | 0.556 | 0.422 | 0.594
NCI-H650 | 0.693 | 0.408 | 0.17 | 0.177 | 0.594 | 0.515 | 0.405 | 0.822 | 0.783 | 0.679 | 0.794 | 0.34 | 0.313 | 0.303 | 0.307 | 0.964 | 0.985 | 0.919 | 0.963 | 0.506
NCI-H661 | 0.347 | 0.344 | 0.389 | 0.37 | 0.707 | 0.655 | 0.443 | 0.903 | 0.933 | 0.882 | 0.736 | 0.566 |  | 0.551 | 0.384 | 0.601 | 0.483 | 0.593 | 0.457 | 0.748
NCI-H727 | 0.589 | 0.567 | 0.457 | 0.444 | 0.584 | 0.461 | 0.52 | 0.345 |  | 0.3 | 0.191 | 0.898 | 0.596 | 0.92 | 0.731 | 0.392 | 0.387 | 0.351 | 0.379 | 0.768
NCI-H838 | 0.274 | 0.271 | 0.216 | 0.24 | 0.474 | 0.359 | 0.319 | 0.321 | 0.313 | 0.427 | 0.303 | 0.507 | 0.48 | 0.488 | 0.465 | 0.587 | 0.431 | 0.586 | 0.509 | 0.421
NCI-H1355 | 0.518 | 0.464 | 0.224 | 0.218 | 0.387 | 0.325 | 0.296 |  | 0.597 | 0.658 | 0.557 | 0.394 | 0.315 | 0.322 | 0.341 | 0.424 | 0.332 | 0.326 | 0.302 | 0.382
NCI-H1395 | 0.61 | 0.553 | 0.399 | 0.355 | 0.712 | 0.615 | 0.629 | 0.919 | 0.613 | 0.676 | 0.671 | 0.816 | 0.726 | 0.807 | 0.678 | 1.1 | 0.993 | 1.02 | 0.989 | 0.677
NCI-H1437 | 0.426 | 0.321 | 0.215 | 0.238 | 0.919 | 0.832 | 0.716 | 1.15 | 1.18 | 1.1 | 1.03 | 0.575 | 0.57 | 0.598 | 0.514 | 0.534 | 0.322 | 0.373 | 0.371 | 0.856
NCI-H1650 | 0.386 | 0.328 | 0.36 | 0.35 | 0.515 | 0.472 | 0.33 | 0.218 | 0.188 | 0.206 | 0.21 | 0.331 | 0.365 | 0.509 | 0.421 | 0.477 | 0.443 | 0.561 | 0.382 | 0.533
NCI-H1651 | 0.699 | 0.638 | 0.506 | 0.316 | 0.698 |  | 0.482 | 0.883 | 0.837 | 0.817 | 0.746 | 0.623 | 0.438 | 0.644 | 0.524 | 0.881 | 0.814 | 0.877 | 0.84 | 0.628
NCI-H1666 | 0.671 | 0.479 | 0.428 | 0.43 | 0.741 | 0.624 | 0.565 | 0.969 | 0.941 | 1.01 | 0.713 |  |  | 0.557 | 0.458 | 0.904 | 0.736 | 0.78 | 0.709 | 0.83
NCI-H1734 | 0.255 | 0.249 | 0.233 | 0.186 | 0.586 | 0.608 | 0.504 | 0.202 | 0.212 | 0.194 | 0.197 | 0.488 | 0.485 | 0.463 | 0.509 | 0.74 | 0.718 | 0.619 | 0.634 | 0.621
NCI-H1755 | 0.624 | 0.469 | 0.419 | 0.367 | 0.776 | 0.786 | 0.619 | 0.412 | 0.432 | 0.536 | 0.413 | 0.725 | 0.75 | 0.741 | 0.764 | 0.793 | 0.774 | 0.816 | 0.737 | 0.757
NCI-H1793 | 0.327 | 0.383 | 0.201 | 0.171 | 0.225 | 0.235 | 0.156 | 0.167 | 0.19 | 0.169 | 0.125 | 0.492 | 0.443 | 0.328 | 0.343 | 0.472 | 0.411 | 0.411 | 0.334 | 0.281
NCI-H1915 | 0.347 | 0.3 | 0.195 | 0.179 | 0.713 | 0.679 | 0.55 | 0.819 | 0.777 | 0.908 | 0.725 | 0.288 | 0.266 | 0.272 | 0.269 | 0.304 | 0.308 | 0.329 | 0.285 | 0.651
NCI-H1944 | 0.256 | 0.257 | 0.23 | 0.224 | 0.355 | 0.291 | 0.269 | 0.813 | 0.471 | 0.609 | 0.434 | 0.43 | 0.382 | 0.37 | 0.372 | 0.385 | 0.326 | 0.361 | 0.295 | 0.413
NCI-H1975 | 0.728 | 0.664 | 0.58 | 0.311 | 0.676 | 0.49 | 0.381 | 0.222 | 0.157 | 0.169 | 0.306 | 0.431 | 0.402 | 0.409 | 0.332 | 0.368 | 0.32 | 0.404 | 0.348 | 0.704
NCI-H1993 | 0.6 | 0.571 | 0.611 | 0.491 | 0.534 | 0.555 | 0.699 | 0.812 | 0.611 | 0.566 | 0.508 | 0.602 | 0.483 | 0.553 | 0.531 | 0.597 | 0.491 | 0.497 | 0.465 | 0.6
NCI-H2009 | 0.737 | 0.514 | 0.399 | 0.226 | 0.653 | 0.65 | 0.414 | 1.04 | 1.03 | 1.09 | 0.944 | 0.333 | 0.347 | 0.35 | 0.374 | 0.385 | 0.306 | 0.301 | 0.239 | 0.759
NCI-H2023 | 0.388 | 0.232 | 0.19 | 0.18 | 0.338 | 0.285 | 0.192 | 0.721 | 0.72 | 0.81 | 0.629 | 0.247 | 0.222 | 0.251 | 0.24 | 0.558 | 0.369 | 0.418 | 0.32 | 0.428
NCI-H2085 | 0.835 | 0.832 | 0.5 | 0.387 | 0.448 | 0.349 | 0.245 | 0.412 | 0.352 | 0.308 | 0.339 | 0.573 | 0.585 | 0.531 | 0.496 | 0.494 | 0.496 | 0.513 | 0.306 | 0.787
NCI-H2087 | 0.24 | 0.192 | 0.189 | 0.148 |  | 0.533 | 0.384 | 0.253 | 0.15 | 0.224 | 0.152 | 0.286 | 0.238 | 0.282 | 0.208 | 0.219 | 0.185 | 0.19 | 0.138 | 0.615
NCI-H2126 | 0.788 | 0.506 | 0.341 | 0.313 | 0.592 | 0.532 | 0.366 | 0.882 | 0.648 | 0.589 | 0.635 | 0.569 | 0.537 | 0.437 | 0.493 | 0.569 | 0.467 | 0.441 | 0.496 | 0.668
